Test results as given in US20190309323A1, “PROMOTER WITH AN ENRICHED CYTOSINE-GUANINE DINUCLEOTIDE REGION, VECTORS, CELLULAR LINES, METHOD FOR PRODUCING RECOMBINANT PROTEIN” (UNIVERSIDAD DE CHILE, priority 2016, published 2019).

B1: RegCG: 1147 bp fragment of Cricetulus griseus β-actin promoter rich in cytosine-guanine dinucleotides, SEQ ID NO. 5 (nucleic acid)
DNA: GGAGAGGGGGTAAAAAAATGCTGCACTGTGCGGCTAGGCCGGTGAGTGAGCGGCGCGGAGCCAATCAGCGCTCGCCGTTCCGAAAGTTGCCTTTTATGGCTCGAGTGGCCGCTGTGGCGTCCTATAAAACCCGGCGGCGCAACGCGCAGCCACTGTCGAGTCCGCGTCCACCCGCGAGCACAGGCCTTTCGCAGCTCTTTCTTCGCCGCTCCACACCCGCCACCAGGTAAGCAGGGACAACAGGCCCAGCCGGCCACAGCCCTCCCGTGGGCAGTGACCGCGCTGCAGGGTCGCGGGGGACACTCGGCGCGGACACCGGGGAAGGCTGGAGGGTGGTGCCGGGCCGCGGAGCGGACACTTTCAGATCCAACTTTCAGTCCAGGGTGTAGACCCTTTACAGCCGCATTGCCACGGTGTAGACACCGGTGGACCCGCTCTGGCTCAGAGCACGCGGCTTGGGGGAACCCATTAGGGTCGCAGTGTGGGCGCTATGAGAGCCGATGCAGCTTTCGGGTGTTGAACCGTATCTGCCCACCTTGGGGGGAGGACACAAGGTCGGGAGCCAAACGCCACGATCATGCCTTGGTGGCCCATGGGTCTTTGTCTAAACCGGTTTGCCCATTTGGCTTGCCGGGCGGGCGGGCGCGGCGGGCCCGGCTCGGCCGGGTTGGGGGCTGGGTTGCCACTGCGCTTGCGCGCTCTATGGCTGGGTATTGGGGCGCGTGCACGCTGGGGAGGGAGCCCTTCCTCTTCCCCCTCTCCCAAGTTAAACTTGCGCGTGCGTATTGAGACTTGGAGCGCGGCCACCGGGGTTGGGCGAGGGCGGGGCCGTTGTCCGGAAGGGGCGGGGTCGCAGCGGCTTCGGGGCGCCTGCTCGCGCTTCCTGCTGGGTGTGGTCGCCTCCCGCGCGCGCACTAGCCGCCCGCCGGCGGGGCGAAGGCGGGGCTTGCGCCCGTTTGGGGAGGGGGCGGAGGCCTGGCTTCCTGCCGTGGGGCCGCCTCCGGACCAGCGTTTGCCTCTTATGGTAATAACGCGGCCGGCCTGGGCTTCCTTTGTCCCCTGAGTTTGGGCGCGCGCCCCCTGGCGGCCCGAGGCCGCGGCTTGCCGGAAGTGGGCAGGGCGGCAGCGGCTGCGCCTAGTGGCCCGCCAGTGACCGCGACCCTCTTTTGTGCCCTGATATAGTTCGCC
modifications: Promoter

Tested on: CHO-K1 cells
Experiment: Transient transfection Dual-Glo luciferase assay (Luc/Ren)
Type: cell-based, Chinese hamster
Details: FIG. 9
Method: Furthermore, the effect of addition of the promoter on luciferase activity in transient transfections was determined. CHO-K1 cells were grown to reach 90% confluence were co-transfected using Lipofectamine CD (Invitrogen. EEU U), with the normalization vector pGL4.73 (Promega. USA) expressing Renilla luciferase reniformis (Ren), under the control of SV40 promoter, and with experimental vectors Seq1-Luc (SEQ ID No.: 2), Seq4-Luc (SEQ ID No.: 35) and Seq5-Luc (SEQ ID No.: 36) expressing Photinus pyralis luciferase (Luc), under the control of the promoters studied and pGL4.17 (base vector without promoter).
CHO-K1 cells were cultured in 24-well plates in DMEM-F12 medium (Gibco) supplemented with fetal bovine serum (FBS) (HyClone) 10%, at 37° C. and 5% CO2, inoculating 300,000 cells/mL for 24 hours, or up to between 80 to 90% confluency. […] To analyze the activity of the reporter gene transfections, the “Dual-Glo Luciferase Assay System (Promega. USA)” (Promega) was used following the manufacturer's instruction, where from cell lysate its measurable sequentially luciferase activity firefly expressed as reporters vectors and activity of renilla luciferase expressed by the normalizer vector. Both activities were mediated by quantifying luminiscence read on a Lumininometer, model Luminoskan ASECNT (Thermo Electronic Corporation). […]

Molecule | relative luciferase activity in transient transfection
Seq5-Luc: reporter vector SEQ ID No. 36 under control of the minimal portion of CMV or Core CMV [reference compound] | lowest activity
B1 | has transcriptional activity
